The values that follow come from patent US20240425491A1, “HETEROARYL COMPOUNDS USEFUL IN THE TREATMENT OF COGNITIVE DISORDERS” (University College Cardiff Consultants Limited, priority 2021, published 2024).

Test [1] addresses T1, human α5β3γ2L GABAA receptors in HEK293 cells (Homo sapiens, UniProt P18507+P31644).
T1 construct: expressed in transfected cells
The experiment in a line: In vitro electrophysiological recording assay (α5-GABAAR relative efficacy), SyncroPatch. It counts as cell-based. The following applies: Conc 0.1 μM; GABA EC10-20. In short, it runs like this: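 HEK293 cells stably expressing the receptor, automated whole-cell patch clamp at −80 mV, room temperature (20-22° C). Compound pre-incubated 1-2 min, then co-applied with GABA EC10-20; % change in peak current vs GABA alone (leak-subtracted). Tested generally at ≥100× Ki and normalised to DMCM efficacy as relative efficacy.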
In general terms: The patch-clamp technique gives a direct electrical read-out from membranes.

The target in test [2] is T2, human α5β3γ2 GABAARs in mouse L(tk−) cells (Homo sapiens, UniProt P18507+P31644).
T2 construct: expressed in transfected cells; host or cells: mouse L(tk−) cells, dexamethasone-inducible vector pMSGneo
T2 sequence (P31644 32-462): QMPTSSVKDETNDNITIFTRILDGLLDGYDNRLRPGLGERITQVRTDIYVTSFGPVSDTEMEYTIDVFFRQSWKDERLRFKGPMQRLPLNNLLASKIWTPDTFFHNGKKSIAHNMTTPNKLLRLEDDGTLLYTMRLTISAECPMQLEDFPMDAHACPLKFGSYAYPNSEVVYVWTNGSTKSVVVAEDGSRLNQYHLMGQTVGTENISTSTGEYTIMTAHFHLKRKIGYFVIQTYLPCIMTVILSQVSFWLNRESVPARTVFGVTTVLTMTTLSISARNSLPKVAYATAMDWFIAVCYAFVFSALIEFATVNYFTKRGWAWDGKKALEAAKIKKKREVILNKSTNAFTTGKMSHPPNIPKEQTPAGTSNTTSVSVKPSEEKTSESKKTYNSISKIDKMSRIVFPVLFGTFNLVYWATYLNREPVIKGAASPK
T2 sequence (P28472 26-473 partner): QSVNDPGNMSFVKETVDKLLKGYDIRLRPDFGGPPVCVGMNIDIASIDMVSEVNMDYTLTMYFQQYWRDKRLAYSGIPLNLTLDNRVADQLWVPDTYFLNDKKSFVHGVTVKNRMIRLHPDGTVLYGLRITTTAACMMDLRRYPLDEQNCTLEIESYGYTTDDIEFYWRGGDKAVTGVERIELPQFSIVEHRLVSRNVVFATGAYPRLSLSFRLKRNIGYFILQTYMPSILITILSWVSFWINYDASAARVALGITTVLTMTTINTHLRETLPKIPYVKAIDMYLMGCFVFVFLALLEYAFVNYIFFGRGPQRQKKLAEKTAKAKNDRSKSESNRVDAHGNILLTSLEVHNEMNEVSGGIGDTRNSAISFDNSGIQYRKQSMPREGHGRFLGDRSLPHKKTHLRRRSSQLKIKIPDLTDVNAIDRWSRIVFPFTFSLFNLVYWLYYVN
T2 sequence (P18507 40-475): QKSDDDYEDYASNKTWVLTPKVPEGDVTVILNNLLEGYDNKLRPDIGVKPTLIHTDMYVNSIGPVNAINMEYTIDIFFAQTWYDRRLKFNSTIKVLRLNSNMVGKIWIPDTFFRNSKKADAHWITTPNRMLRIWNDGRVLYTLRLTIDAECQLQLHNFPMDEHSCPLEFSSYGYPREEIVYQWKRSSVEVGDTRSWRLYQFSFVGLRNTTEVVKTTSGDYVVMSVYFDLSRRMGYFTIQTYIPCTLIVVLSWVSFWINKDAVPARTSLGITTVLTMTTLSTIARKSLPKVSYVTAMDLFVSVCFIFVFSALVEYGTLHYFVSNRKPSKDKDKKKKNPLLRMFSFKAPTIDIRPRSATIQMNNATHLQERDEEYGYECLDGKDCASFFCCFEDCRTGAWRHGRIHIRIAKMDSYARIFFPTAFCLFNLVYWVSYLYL
The experiment in a line: In vitro electrophysiological recording assay (α5-GABAAR relative efficacy), QPatch. It counts as cell-based. In short, it runs like this: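 Whole-cell QPatch recordings at 20-22° C, −65 mV holding, in dexamethasone-induced (1 μM, 24 h) L(tk−) cells. Compound pre-applied ≥1 min, then co-applied with GABA EC10-20; percentage change in leak-corrected peak current, taken at ≥100× Ki, normalised to DMCM efficacy; 0.1% DMSO final.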

T1 sequence (P31644 32-462): as the sequence (P31644 32-462) above
T1 sequence (P28472 26-473 partner): as the sequence (P28472 26-473 partner) above
T1 sequence (P18507 40-475): as the sequence (P18507 40-475) above

Turning to `COc1nc(-n2ccnc2)ccc1NC(=O)c1c(-c2ccccc2)noc1C` [Example 1, N-(6-Imidazol-1-yl-2-methoxy-3-pyridyl)-5-methyl-3-phenyl-isoxazole-4-carboxamide], the “α5-GABAAR Relative Efficacy (to DMCM), SyncroPatch” value in test [1] is given as −1.11. In addition, the “GABA-elicited whole-cell current in the presence of compound” value in test [2] (1 μM, QPatch, same cell before and after addition, FIG. 1) is on record as “smaller current”. For the same molecule, the “α5-GABAAR Relative Efficacy (to DMCM), Qpatch” value in test [2] (Conc 1 μM, GABA EC10-20) is listed as −0.91.
